Laboratory results: US5023269A, “3-aryloxy-3-substituted propanamines” (Eli Lilly and Company, priority 1990, dated 1991)
Counter-ions that a name gives are not always drawn.

How the values were obtained:
serotonin (5HT) uptake = assay: Inhibition of 5HT uptake in vitro: synaptosomal uptake of 3H-serotonin in rat cortical synaptosomes; assay type: biochemical, rat (male Sprague-Dawley); settings: 50 nM 3H-5HT, 37° C., 5 min
Procedure: (§1) This general procedure is set forth by Wong et al., in Drug Development Research 6:397-403 (1985).
(§2) Male Sprague-Dawley rats (110-150 g) from Harlan Industries (Cumberland, IN) were fed a Purina Chow ad libitum for at least 3 days before being used in the studies. Rats were killed by decapitation. Whole brains were removed and dissected. Cerebral cortex was homogenized in 9 volumes of a medium containing 0.32 M sucrose and 10 mM glucose. Crude synaptosomal preparations were isolated after differential centrifugation at 1,000 g for 10 min. and 17,000 g for 28 min. The final pellets were suspended in the same medium and kept in ice until use within the same day.
(§3) Synaptosomal uptake of ^3 H-serotonin(^3 H-5hydroxytryptamine, ^3 H-5HT) and ^14 C-l-norepinephrine (^14 C-NE) was determined as follows. Cortical synaptosomes (equivalent to 1 mg of protein) were incubated at 37° C. for 5 min in 1 ml of Krebs-bicarbonate medium containing also 10 mM glucose, 0.1 mM iproniazid, 1 mM ascorbic acid, 0.17 mM EDTA, 50 nM ^3 H-5HT and 100 nM ^14 C-NE The reaction mixture was immediately diluted with 2 ml of ice-chilled Krebs-bicarbonate buffer and filtered under vacuum with a cell harvester (Brandel, Gaithersburg, MD). Filters were rinsed twice with approximately 5 ml of ice-chilled 0.9% saline and were transferred to a counting vial containing 10 ml of scintillation fluid (PCS, Amersham, Arlington Heights, IL). Radioactivity was measured by a liquid scintillation spectrophotometer. Accumulation of ^3 H-5HT and ^14 C-NE at 4° C. represented the background and was subtracted from all samples.

[1] = test system: norepinephrine (NE) uptake; assay: Inhibition of norepinephrine uptake in vitro: synaptosomal uptake of 14C-l-norepinephrine in rat cortical synaptosomes; assay type: biochemical, rat (male Sprague-Dawley); settings: 100 nM 14C-NE, 37° C., 5 min
Procedure: as §1, §2, §3

Row | IC50 (serotonin (5HT) uptake) | IC50 [1] | Compound | percent inhibition at 1000 nM, NE (number in parentheses) [1] | further results
1 | 79 nM | 285 nM | CNCCC(Oc1ccc(C(F)(F)F)cc1)C1CCCCC1 (stereo not drawn) [Example 34, N-Methyl-3-[4-(trifluoromethyl)phenoxy]-3(cyclohexyl)propanamine oxalate] | – | –
2 | 58 nM | – | Cc1ccc(OC(CCN(C)C)c2cccs2)c2ccccc12 (stereo not drawn) [Example 12, N,N-Dimethyl-3-(4-methyl-1-naphthalenyloxy)-3-(2-thienyl)propanamine oxalate] | 40% | –
3 | 190 nM | – | CN(C)CCC(Oc1ccc(C(F)(F)F)cc1)c1cccs1 (stereo not drawn) [Example 18, N,N-Dimethyl-3-[4-(trifluoromethyl)phenoxy]-3-(-22-thienyl)propanamine oxalate] | 15% | –
4 | 13 nM | 600 nM | CN(C)CCC(Oc1cccc2ccccc12)c1cccs1 (stereo not drawn) [Example 1, N,N-Dimethyl-3-(1-naphthalenyloxy)-3-(2-thienyl)propanamine oxalate] | – | –
5 | 50 nM | 260 nM | CNCCC(Oc1ccc(OC)cc1)c1cccs1 (stereo not drawn) [Example 28, N-Methyl-3-(4-methoxyphenoxy)-3-(2-thienyl)propanamine oxalate] | – | –
6 | 50 nM | 510 nM | CN(C)CCC(Oc1cccc2ccccc12)c1nccs1 (stereo not drawn) [Example 32, N,N-Dimethyl-3-(1-naphthalenyloxy)-3-(2thiazolyl)propanamine oxalate] | – | –
7 | 112 nM | 22 nM | CNCCC(Oc1ccc(C)cc1)c1cccs1 (stereo not drawn) [Example 26, N-Methyl-3-(4-methylphenoxy)-3-(2-thienyl)propanamine oxalate] | – | –
8 | 25 nM | 630 nM | CN(C)CCC(Oc1cccc2ccccc12)c1ccsc1 (stereo not drawn) [Example 8, N,N-Dimethyl-3-(1-naphthalenyloxy)-3-(3-thienyl)propanamine oxalate] | – | –
9 | 114 nM | – | CN(C)CCC(Oc1ccc(C(F)(F)F)c2ccccc12)c1cccs1 (stereo not drawn) [Example 6, N,N-Dimethyl-3-[4-(trifluoromethyl)-1naphthalenyloxy]-3-(2-thienyl)propanamine oxalate] | 9% | –
10 | 46 nM | – | CNCCC(Oc1ccc(C(F)(F)F)cc1)c1cccs1 (stereo not drawn) [Example 20, N-Methyl-3-[4-(trifluoromethyl)phenoxy-3-(2-thienyl)propanamine oxalate] | 52% | –
11 | 95 nM | – | CNCCC(Oc1ccc(C(F)(F)F)c2ccccc12)c1cccs1 (stereo not drawn) [Example 7, N-Methyl-3-[4-(trifluoromethyl)-1-naphthalenyloxy]-3-(2-thienyl)propanamineoxalate] | 46% | –
12 | 54 nM | 1100 nM | CNCCC(Oc1ccc(C(F)(F)F)cc1)c1ccco1 (stereo not drawn) [Example 23, N-Methyl-3-[4-(trifluoromethyl)phenoxy]-3-(2-furanyl)propanamine oxalate] | – | –
13 | 140 nM | – | CN(C)CCC(Oc1ccc(C(F)(F)F)cc1)c1ccco1 (stereo not drawn) [Example 21, N,N-Dimethyl-3-[4-(trifluoromethyl)phenoxy]-3-(2-furanyl)propanamine] | 14% | –
14 | – | – | CN(C)CCC(Oc1ccc(C(F)(F)F)cc1)c1ccco1 (stereo not drawn) [Example 17, N,N-Dimethyl-3-[4-(trifluoromethyl)phenoxy]-3-(2-furanyl)propanamine oxalate] | – | IC50 (serotonin (5HT) uptake; oxalate): 210 nM; percent inhibition at 1000 nM, NE (number in parentheses) ([1]; oxalate): 5%
15 | 125 nM | 430 nM | Cc1ccc(OC(CCN(C)C)c2cccs2)cc1 (stereo not drawn) [Example 24, N,N-Dimethyl-3-(4-methylphenoxy)-3-(2-thienyl)propanamine oxalate] | – | –
16 | 76 nM | – | Cc1ccsc1C(CCN(C)C)Oc1cccc2ccccc12 (stereo not drawn) [Example 4, N,N-Dimethyl-3-(1-naphthalenyloxy)-3-(3-methyl-2-thienyl)propanamine oxalate] | 41% | –
17 | 20 nM | 22.7 nM | CNCCC(Oc1cccc2ccccc12)c1ccco1 (stereo not drawn) [Example 31, N-Methyl-3-(1-naphthalenyloxy)-3-(2-furanyl)propanamine oxalate] | – | –

Row | IC50 (serotonin (5HT) uptake) | IC50 [1] | Compound | percent inhibition at 1000 nM, NE (number in parentheses) [1] | further results
18 | 18 nM | 69 nM | CNCCC(Oc1cccc2ccccc12)c1ccsc1 (stereo not drawn) [Example 9, N-Methyl-3-(1-naphthalenyloxy)-3-(3-thienyl)propanamine oxalate] | – | –
19 | – | – | CNCCC(Oc1cccc2ccccc12)c1cccs1 (single isomer, unassigned; (-)) [Example 39, (-)-N-methyl-3-(1-naphthalenyloxy)-3-(2-thienyl)propanamine oxalate] | – | IC50 (serotonin (5HT) uptake; oxalate): […]; IC50 ([1]; oxalate): 34 nM
20 | 210 nM | – | CN(C)CCC(Oc1cccc2ccccc12)C1CCCCC1 (stereo not drawn) [Example 33, N,N-Dimethyl-3-(1-naphthalenyloxy)-3-(cyclohexyl)propanamine oxalate] | 47% | –
21 | 70 nM | 205 nM | CNCCC(Oc1cccc2ccccc12)c1nccs1 (stereo not drawn) [Example 16, N-Methyl-3-(1-naphthalenyloxy)-3-(2-thiazolyl)propanamine oxalate] | – | –
22 | 100 nM | – | CNCCC(Oc1ccc(C(F)(F)F)cc1)c1ccsc1 (stereo not drawn) [Example 22, N-Methyl-3-[4-(trifluoromethyl)phenoxy]-3-(3-thienyl)propanamine oxalate] | 36% | –
23 | 260 nM | – | CN(C)CCC(Oc1ccc(C(F)(F)F)cc1)C1CCCCC1 (stereo not drawn) [Example 35, N,N-Dimethyl-3-[4-(trifluoromethyl)phenoxy]-3-(cyclohexyl)propanamine oxalate] | 21% | –
24 | 11 nM | 30 nM | CN(C)CCC(Oc1cccc2ccccc12)c1ccco1 (stereo not drawn) [Example 30, N,N-Dimethyl-3-(1-naphthalenyloxy)-3-(2furanyl)propanamine oxalate] | – | –
25 | 125 nM | 90 nM | CNCCC(Oc1cccc2ccccc12)C1CCCCC1 (stereo not drawn) [Example 15, N-Methyl-3-(1-naphthalenyloxy)-3-cyclohexylpropanamine oxalate] | – | –
26 | 91 nM | 59 nM | CNCCC(Oc1ccc(Cl)cc1)c1cccs1 (stereo not drawn) [Example 27, N-Methyl-3-(4-chlorophenoxy)-3-(2-thienyl)propanamine oxalate] | – | –
27 | 410 nM | – | COc1ccc(OC(CCN(C)C)c2cccs2)cc1 (stereo not drawn) [Example 29, N,N-Dimethyl-3-(4-methoxyphenoxy)-3-(2thienyl)propanamine oxalate] | 18% | –
28 | 125 nM | – | CN(C)CCC(Oc1ccc(C(F)(F)F)cc1)c1ccsc1 (stereo not drawn) [Example 19, N,N-Dimethyl-3-[4-(trifluoromethyl)phenoxy]-3-(3-thienyl)propanamine oxalate] | 17% | –
29 | 36 nM | – | CN(C)CCC(Oc1ccc(Cl)c2ccccc12)c1cccs1 (stereo not drawn) [Example 10, N,N-Dimethyl-3-(4-chloro-1-naphthalenyloxy)-3-(2-thienyl)propanamine oxalate] | 31% | –
30 | 315 nM | 315 nM | CN(C)CCC(Oc1cccc2ccccc12)c1cccnc1 (stereo not drawn) [Example 37, N,N-Dimethyl-3-(1-naphthalenyloxy)-3-(3-pyridyl)propanamine oxalate] | – | –
31 | 49 nM | 77 nM | CNCCC(Oc1ccc(Cl)c2ccccc12)c1cccs1 (stereo not drawn) [Example 11, N-Methyl-3-(4-chloro-1-naphthalenyloxy)-3-(2-thienyl)propanamine oxalate] | – | –
32 | 62 nM | 725 nM | CN(C)CCC(Oc1cccc2ccccc12)c1ccc(Cl)s1 (stereo not drawn) [Example 5, N,N-Dimethyl-3-(1-naphthalenyloxy)-3-(5-chloro-2-thienyl)propanamine oxalate] | – | –
33 | 170 nM | 820 nM | CN(C)CCC(Oc1ccc(Cl)cc1)c1cccs1 (stereo not drawn) [Example 25, N,N-Dimethyl-3-(4-chlorophenoxy)-3-(2-thienyl)propanamine oxalate] | – | –
34 | 55 nM | 720 nM | Cc1ccc(C(CCN(C)C)Oc2cccc3ccccc23)s1 (stereo not drawn) [Example 3, N,N-Dimethyl-3-(1-naphthalenyloxy)-3-(5-methyl-2-thienyl)propanamine oxalate] | – | –

Row | Compound | IC50 (serotonin (5HT) uptake) | IC50 [1] | percent inhibition at 1000 nM, NE (number in parentheses) [1] | further results
35 | CNCCC(Oc1cccc2ccccc12)c1cccs1 (stereo not drawn) [Example 2, N-Methyl-3-(1-naphthalenyloxy)-3-(2-thienyl)propanamine oxalate] | […] | – | – | –
